Reference: US20220202799A1, “PHARMACEUTICAL FORMULATIONS CONTAINING P2Y14 ANTAGONISTS” (priority 2019, published 2022)

Key:
Format in all cases: physicochemical
[1] = Solubility of PPTN at pH ranges suitable for intravenous injection
Description: The solubility of PPTN at pH ranges suitable for intravenous injection was analyzed. PPTN (HCl salt) was dissolved in DMSO to make a stock solution, and the stock solution was diluted into various aqueous solutions. […] The solutions were then adjusted to achieve a pH ≥5.0, and the solutions were observed again.

[2] = TPGS enhancement of solubility of PPTN at neutral pH
Description: α-Tocopherol polyethylene glycol succinate (TPGS) was tested for enhancement of solubility of PPTN at neutral pH. A solution containing 5 mg/mL PPTN and 4% TPGS was made by mixing components as indicated in Table 5 with stirring and heating.
To create a solution suitable for in vitro studies, the solution containing 5 mg/mL PPTN and 4% TPGS created above was diluted into phosphate-buffered saline by mixing components as indicated in Table 6.

[3] = Loss of PPTN due to adherence to surfaces of vessels; details: 200 ng/ml PPTN, no solubilizing agent, 24 hours
Description: The loss of PPTN due to adherence to surfaces of vessels was analyzed. PPTN is a hydrophobic compound that may adhere to plastics and other surfaces. To test how much PPTN is lost due to surface adhesion, an aqueous solution containing 200 ng/ml PPTN and less than 0.1% acetonitrile was incubated in the absence of solubilizing agent in various vessels for 24 hours. […]

[4] = Solubility of PPTN in SBECD-containing saline solutions; details: 9 mg/mL PPTN (HCl salt) in 12% SBECD/saline; room temperature for 28 days
Description: Sulfobutylether-β-cyclodextrin (SBECD) was tested for the ability to increase the solubility of PPTN in aqueous media.
A stock solution containing 12% SBECD was prepared as follows: 9 mL of saline was added to 1.21 g of SBECD in a 10 mL flask, and the mixture was sonicated for 5 minutes. Saline was then added to achieve a final volume of 10 mL. The pH of the final solution was about 7.
The solubility of PPTN in solutions containing various concentrations of SBECD was analyzed. Excess PPTN was added to saline solutions containing various concentrations of SBECD, insoluble material was removed by filtration, and the PPTN concentration in the filtered solution was analyzed.
A solution containing 9 mg/mL PPTN was prepared as follows. 4.7 mL of 12% SBECD solution, prepared as described above, was added to a 5 mL flask containing 45 mg PPTN (HCl salt), and the mixture was sonicated with heat for 50 minutes. After sonication, 12% SBECD solution to achieve a final volume of 5 mL. The warm solution appeared clear. The solution was allowed to cool to room temperature and was incubated at room temperature for 28 days.

[5] = Stability of PPTN/SBECD solution on dilution into saline; details: 9 mg/mL PPTN
Description: The stability of PPTN in SBECD-containing solutions was analyzed at various concentrations of PPTN. A solution containing 9 mg/mL PPTN and 12% SBECD, as described above, was diluted into saline as described in Table 13.

[6] = Loss of PPTN due to adherence to surfaces of vessels; details: 200 ng/ml PPTN, no solubilizing agent; Control 48 h, glass scintillation vial

O=C(O)c1cc(-c2ccc(C3CCNCC3)cc2)c2ccc(-c3ccc(C(F)(F)F)cc3)cc2c1 [KB-1801, 4-[4-(piperidin-4-yl)phenyl]-7-[4-(trifluoromethyl)phenyl]-2-naphthoic acid]
Solution appearance at 24 hours ([1]; 0.015 mg/mL (~29 μM), 1.5 mg DMSO stock solution diluted 100x in water, pH 4-5): Clear
Remarks when pH adjusted to 5-5.5 ([1]; 1.0 mg/mL, DMAc/Water (10/90, v/v), initial pH ~2): Became cloudy
Solution appearance at 24 hours ([1]; 5.0 mg/mL, 1.5 mg DMSO stock solution diluted 100x in PBS (20 mM), pH 5-6): Hazy
Remarks when pH adjusted to 5-5.5, after sonication ([1]; 5.0 mg/mL, DMAc/Water (10/90, v/v) with ~0.1% Tween 80, after sonication): became clear
Remarks when pH adjusted to 5-5.5 ([1]; 5.0 mg/mL, DMAc/Water (10/90, v/v) with ~0.1% Tween 80, initial pH 1-2): Became slightly cloudy;
Remarks when pH adjusted to 5-5.5 ([1]; 5.0 mg/mL, DMAc/Water (10/90, v/v), initial pH 1-2): Became very cloudy
Remarks when pH adjusted to 5-5.5 ([1]; 5.0 mg/mL, NMP/Water (10/90, v/v), initial pH 1-2): Became very cloudy
Remarks when pH adjusted to 5-5.5 ([1]; 5.0 mg/mL, Propylene Glycol/Water (10/90, v/v), initial pH 1-2): Became very cloudy
Solution pH (final) ([2]; 100 μM KB-1801, 0.04 wt % TPGS in buffered saline): Final pH: 7.4
Solution appearance ([2]; 100 μM KB-1801, 0.04 wt % TPGS in buffered saline (5 mg/ml solution diluted 100x)): Resulting clear solution
Solution appearance ([2]; 5 mg/mL KB-1801, 4 wt % TPGS, after phosphate buffer 20 mM pH 8.3): Resulting clear
Solution pH (final) ([2]; 5 mg/mL KB-1801, 4 wt % TPGS, phosphate buffer, buffered saline): Final pH: 7.0-7.4
Solution appearance ([2]; 5 mg/mL KB-1801 with TPGS solution, 4 wt %, stirring and heating): Resulting clear
% recovery vs. control ([3]; Corning pipette tip): 22%
% recovery vs. standard ([3]; Corning pipette tip): 6%
% recovery vs. control ([3]; Eppendorf clear conical tube): 19%
% recovery vs. standard ([3]; Eppendorf clear conical tube): 5%
% recovery vs. control ([3]; Eppendorf orange conical tube): 25%
% recovery vs. standard ([3]; Eppendorf orange conical tube): 6%
% recovery vs. control ([3]; Versilon SE200 Tygon tubing): 8%
% recovery vs. standard ([3]; Versilon SE200 Tygon tubing): 2%
% recovery vs. control ([3]; polyetheretherketone tubing): 22%
% recovery vs. standard ([3]; polyetheretherketone tubing): 6%
Solution appearance [4]: remained clear throughout the entire incubation
Result (appearance after dilution) ([5]; 12% SBECD stock diluted 3x with saline): Clear solution
Result (appearance after dilution) ([5]; 12% SBECD stock diluted 10x with saline): Clear solution
Result (appearance after dilution) ([5]; 12% SBECD stock diluted 50x with saline): Clear solution
% recovery vs. standard [6]: 26%
